Source: publication PMC4322620 (Frontiers in Pharmacology, 2015)
Where a SMILES comes first, the peptide text is derived from it. [ ]: non-standard residue; d: D form. The star is where a group is joined. X1 = CC(=O)N[C@@H]1[C@@H](O[C@@H]2O[C@H](CO)[C@H](O)[C@H](O)[C@H]2O)[C@@H](O)[C@@H](CO)O[C@@H]1*; X2 = CC12CC3CC(C)(C1)CC(N*)(C3)C2; pGlu = O=C1CC[C@@H](C(=O)O)N1

How the values were obtained:
[1] = in vitro; settings: rat, serum
[2] = molecular target: neurotensin receptors (HT-29 cells) (Homo sapiens, UniProt P30989); format: cell-based
[3] = molecular target: NTS1 (HT-29 cells) (Homo sapiens, UniProt P30989); assay: cell-based
[4] = in vitro; settings: mouse, other tissue homogenate
[5] = molecular target: cell-surface neurotensin receptors (HT-29 cells) (Homo sapiens, UniProt P30989); format: cell-based
[6] = system: motor impairment; settings: mouse, in vivo

Chain of neurotensin receptors (HT-29 cells) (P30989 whole entry, looked up): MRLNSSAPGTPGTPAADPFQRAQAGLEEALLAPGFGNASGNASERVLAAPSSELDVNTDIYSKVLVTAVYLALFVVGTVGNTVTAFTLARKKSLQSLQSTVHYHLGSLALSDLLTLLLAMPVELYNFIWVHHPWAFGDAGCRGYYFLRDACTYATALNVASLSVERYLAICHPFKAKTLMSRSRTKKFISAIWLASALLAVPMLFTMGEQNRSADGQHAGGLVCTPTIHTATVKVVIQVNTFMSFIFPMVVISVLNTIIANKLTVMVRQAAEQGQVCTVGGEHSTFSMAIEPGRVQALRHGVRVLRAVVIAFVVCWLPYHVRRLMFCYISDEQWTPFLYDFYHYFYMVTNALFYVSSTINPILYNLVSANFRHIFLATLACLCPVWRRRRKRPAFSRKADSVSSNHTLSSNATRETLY
Chain of cell-surface neurotensin receptors (HT-29 cells) (P30989 whole entry, looked up): as above
Chain of NTS1 (HT-29 cells) (P30989 whole entry, looked up): as above

SMILES | half-life [1] [h] | DC50 [2] [nM] | DC50/EC50 [2] | EC50 [3] [nM] | half-life [4] [h] | levels of cell-surface neurotensin receptors after agonist exposure [5] | rotorod toxicity [6]
CC[C@H](C)[C@H](NC(=O)[C@H](Cc1ccc(O)cc1)NC(=O)[C@@H]1CCCN1C(=O)[C@H](CCCCN)NC(=O)[C@H](CCCCN)NC(=O)[C@@H](NC(=O)[C@H](C)NC(=O)[C@H](CC(N)=O)NC(=O)[C@H](CO)NC(=O)CNC(=O)CNC(=O)[C@H](CCC(=O)O)NC(=O)[C@H](CCC(=O)O)NC(=O)[C@H](CO)NC(=O)[C@@H]1CCC(=O)N1)[C@@H](C)O[C@H]1O[C@H](CO)[C@H](O)[C@H](O[C@@H]2O[C@H](CO)[C@H](O)[C@H](O)[C@H]2O)[C@H]1NC(C)=O)C(=O)N[C@@H](CC(C)C)C(=O)O [Contulakin-G] ([pGlu]SEEGGSNAT(X1)KKPYIL-OH) | > 16 | 444 ± 41 | 14 | 32.4 ± 14.5 | > 2.67 | significantly higher levels | 
CC[C@H](C)[C@H](NC(=O)[C@H](Cc1ccc(O)cc1)NC(=O)[C@@H]1CCCN1C(=O)[C@H](CCCCN)NC(=O)[C@H](CCCCN)NC(=O)[C@H](CCC(=O)NC12CC3CC(C)(CC(C)(C3)C1)C2)NC(=O)[C@H](CCCCN)NC(=O)[C@H](CC(N)=O)NC(=O)[C@H](CO)NC(=O)CNC(=O)CNC(=O)[C@H](CCC(=O)O)NC(=O)[C@H](CCC(=O)O)NC(=O)[C@H](CO)NC(=O)[C@@H]1CCC(=O)N1)C(=O)N[C@@H](CC(C)C)C(=O)O [memantine-Contulakin-G] ([pGlu]SEEGGSNKE(X2)KKPYIL-OH) |  |  |  |  |  |  | no rotorod toxicity
